The target of data set [1] is T1, α4β7 (adhesion of RPMI cells to CS-1) (Homo sapiens, UniProt P13612+P26010).
T1 construct: endogenous in cells
T1 sequence (P13612 34-1032): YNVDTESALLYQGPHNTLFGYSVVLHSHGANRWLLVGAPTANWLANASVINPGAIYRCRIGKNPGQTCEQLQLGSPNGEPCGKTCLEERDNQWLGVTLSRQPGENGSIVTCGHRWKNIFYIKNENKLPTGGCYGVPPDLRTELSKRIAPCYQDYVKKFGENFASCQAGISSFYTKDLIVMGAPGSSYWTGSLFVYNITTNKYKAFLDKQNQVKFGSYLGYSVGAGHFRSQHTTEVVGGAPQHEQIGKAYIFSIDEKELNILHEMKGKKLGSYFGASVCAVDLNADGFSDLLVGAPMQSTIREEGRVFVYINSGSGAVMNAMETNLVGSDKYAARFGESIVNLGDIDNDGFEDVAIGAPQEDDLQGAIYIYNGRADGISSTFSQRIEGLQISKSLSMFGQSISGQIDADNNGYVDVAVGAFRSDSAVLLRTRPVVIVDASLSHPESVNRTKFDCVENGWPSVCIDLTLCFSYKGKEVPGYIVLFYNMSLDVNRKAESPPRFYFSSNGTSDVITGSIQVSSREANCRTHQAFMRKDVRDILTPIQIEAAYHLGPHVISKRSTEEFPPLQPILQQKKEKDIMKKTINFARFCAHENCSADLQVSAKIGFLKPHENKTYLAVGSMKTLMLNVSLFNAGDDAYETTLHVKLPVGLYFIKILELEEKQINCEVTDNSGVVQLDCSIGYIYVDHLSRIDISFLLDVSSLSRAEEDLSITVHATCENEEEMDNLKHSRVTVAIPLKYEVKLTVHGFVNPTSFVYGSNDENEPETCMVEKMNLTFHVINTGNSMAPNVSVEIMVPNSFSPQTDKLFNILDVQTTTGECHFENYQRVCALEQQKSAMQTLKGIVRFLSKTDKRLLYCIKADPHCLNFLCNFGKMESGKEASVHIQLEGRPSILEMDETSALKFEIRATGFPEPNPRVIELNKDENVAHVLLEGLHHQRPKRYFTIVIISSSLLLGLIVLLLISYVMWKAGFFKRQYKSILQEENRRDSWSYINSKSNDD
T1 sequence (P26010 20-798): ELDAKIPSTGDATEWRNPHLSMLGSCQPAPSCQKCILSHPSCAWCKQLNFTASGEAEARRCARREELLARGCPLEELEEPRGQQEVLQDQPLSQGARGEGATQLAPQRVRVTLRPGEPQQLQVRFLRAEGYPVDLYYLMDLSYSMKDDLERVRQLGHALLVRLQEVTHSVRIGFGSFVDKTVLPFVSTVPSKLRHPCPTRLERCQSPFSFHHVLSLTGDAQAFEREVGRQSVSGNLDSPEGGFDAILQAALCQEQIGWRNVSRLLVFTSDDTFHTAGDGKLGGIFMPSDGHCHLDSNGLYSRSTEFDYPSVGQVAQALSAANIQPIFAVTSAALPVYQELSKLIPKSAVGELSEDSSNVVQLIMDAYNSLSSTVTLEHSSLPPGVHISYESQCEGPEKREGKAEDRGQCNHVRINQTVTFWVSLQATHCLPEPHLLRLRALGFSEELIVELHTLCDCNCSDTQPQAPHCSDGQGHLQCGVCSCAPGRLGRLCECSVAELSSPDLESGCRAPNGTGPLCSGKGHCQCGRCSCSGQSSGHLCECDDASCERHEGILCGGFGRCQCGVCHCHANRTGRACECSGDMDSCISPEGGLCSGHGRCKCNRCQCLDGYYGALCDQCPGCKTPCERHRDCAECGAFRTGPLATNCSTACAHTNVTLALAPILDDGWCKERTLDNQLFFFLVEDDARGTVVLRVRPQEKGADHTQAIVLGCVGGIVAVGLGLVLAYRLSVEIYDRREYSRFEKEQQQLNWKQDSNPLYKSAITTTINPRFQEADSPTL
Nature of the data set: RPMI-CS-1 cell adhesion assay. The format is cell-based. The conditions noted are these: adhesion of RPMI B-cell line (expresses α4β7) to CS-1 peptide coated microwells; read-out: RPMI-CS-1 IC50 value range.

Bounds are passed on as bounds.

Usually IC50 stands for the point on the concentration scale where inhibition reaches its midpoint. The term melting point denotes the temperature of the solid-liquid transition.

The compound `COc1ccccc1-c1cccc(CC(NC(=O)c2c(Cl)cccc2Cl)C(=O)O)c1` (racemic) [Example 6, N-(2,6-Dichlorobenzoyl)-3-[2-methoxyphenyl)-DL-phenylalanine] gave a melting point of 104 °C. In addition, in data set [1], the concentration for half-maximal inhibition (IC50) is greater than 5000 nM.

The compound `COc1cc(C)cc(OC)c1-c1ccc(C[C@H](NC(=O)c2c(Cl)cccc2Cl)C(=O)O)cc1` [Example 148] had a melting point of 233 to 234 °C. Besides, the concentration for half-maximal inhibition (IC50) in data set [1] is less than 300 nM.

Consider `COc1cccc(OC)c1-c1ccc(C[C@H](NC(=O)c2c(Cl)cc(-c3ccccc3)cc2Cl)C(=O)O)cc1` [Example 301, N-(2,6-Dichloro-4-phenylbenzoyl)-4-(2,6-dimethoxyphenyl)-L-phenylalanine], for which the melting point was 215 °C. In addition, in data set [1], the IC50 was less than 300 nM.

The compound `COc1cc(CN2CC[S+]([O-])CC2)cc(OC)c1-c1ccc(C[C@H](NC(=O)c2c(Cl)cccc2Cl)C(=O)O)cc1` [Example 263B, N-(2,6-Dichlorobenzoyl)-4-[2,6-dimethoxy-4-(thiomorpholinomethyl)phenyl]-L-phenylalanine S-oxide] yielded a melting point of 162.8 °C. In addition, the 50% inhibitory concentration (IC50) in data set [1] is less than 300 nM.

Consider `CNC(=S)Nc1cc(OC)c(-c2ccc(C[C@H](NC(=O)c3c(Cl)cccc3Cl)C(=O)O)cc2)c(OC)c1` [Example 162, N-(2,6-Dichlorobenzoyl)-4-[2,6-dimethoxy-4-(3-methylthioureido)phenyl]-L-phenylalanine], for which the melting point is 197 to 198 °C. Besides, the 50% inhibitory concentration (IC50) in data set [1] was less than 300 nM.

With `COC(=O)Nc1cc(OC)c(-c2ccc(C[C@H](NC(=O)c3c(Cl)cccc3Cl)C(=O)O)cc2)c(OC)c1` [Example 158, N-(2,6-Dichlorobenzoyl)-4-(4-methoxycarbonylamino-2,6-dimethoxyphenyl)-L-phenylalanine], the melting point was 235 to 236 °C. For the same compound, in data set [1], the IC50 was less than 300 nM.

Compound `COc1cc(NS(C)(=O)=O)cc(OC)c1-c1ccc(C[C@H](NC(=O)c2c(Cl)cccc2Cl)C(=O)O)cc1` [Example 163, N-(2,6-Dichlorobenzoyl)-4-[2,6-dimethoxy-4-[(methylsulfonyl)amino]phenyl]-L-phenylalanine] gave a melting point of 154 to 155 °C. Also, the IC50 in data set [1] is less than 300 nM.

On to `COc1ccccc1-c1ccc(C[C@H](NC(=O)c2ccc(NC(=S)Nc3ccccc3)cc2Cl)C(=O)O)cc1` [Example 197], for which the melting point was 145 to 146 °C. In data set [1], the IC50 is 300 to 1000 nM.

In turn, `COc1c(C)c(OC)c(-c2ccc(C[C@H](NC(=O)c3c(Cl)cccc3Cl)C(=O)O)cc2)c(OC)c1C` [Example 147] came in with a melting point of 114 to 115 °C. For the same compound, the IC50 in data set [1] was less than 300 nM.

With `O=C(N[C@@H](Cc1ccc(-c2cccc3c2OCCC3)cc1)C(=O)O)c1c(Cl)cccc1Cl` [Example 328], the melting point fell in the range of 214 to 215 °C. Further, the IC50 in data set [1] was less than 300 nM.

In the case of `COc1cc(C(=O)N(C)C)cc(OC)c1-c1ccc(C[C@H](NC(=O)c2c(Cl)cccc2Cl)C(=O)O)cc1` [Example 166], the melting point was 219 to 221 °C. The IC50 in data set [1] is less than 300 nM.

In turn, `COc1cc(NC(=O)Nc2ccccc2C)cc(OC)c1-c1ccc(C[C@H](NC(=O)c2c(Cl)cccc2Cl)C(=O)O)cc1` [Example 161, N-(2,6-Dichlorobenzoyl)-4-[4-[3-(2-methylphenyl)ureido]-2,6-dimethoxyphenyl]-L-phenylalanine] yielded a melting point of 194 to 195 °C. Also, in data set [1], the IC50 was less than 300 nM.

Regarding `CON=C(C)c1cc(C[C@H](NC(=O)c2c(Cl)cccc2Cl)C(=O)O)ccc1-c1ccccc1OC` [Example 352, N-(2,6-Dichlorobenzoyl)-3-[1-(methoxyimino)ethyl]-4-(2-methoxyphenyl)-L-phenylalanine], the melting point was determined as 106.8 °C. The concentration for half-maximal inhibition (IC50) in data set [1] is 300 to 1000 nM.

`COc1cccc(OC)c1-c1ccc(C[C@H](NC(=O)c2c(Cl)cc(-c3cnccn3)cc2Cl)C(=O)O)cc1` [Example 308, N-[4-(2-Pyrazinyl)-2,6-dichlorobenzoyl]-4-(2,6-dimethoxyphenyl)-L-phenylalanine] displayed a melting point of 145.7 °C. In addition, the IC50 in data set [1] was less than 300 nM.

On to `COc1cccc(OC)c1-c1ccc(C[C@H](NC(=O)c2c(Cl)cc(O)cc2Cl)C(=O)O)cc1` [Example 208], for which the melting point lay within 252 to 253 °C. Moreover, the half-inhibitory concentration (IC50) in data set [1] was less than 300 nM.

With `CNC(=O)c1cc(OC)c(-c2ccc(C[C@H](NC(=O)c3c(Cl)cccc3Cl)C(=O)O)cc2)c(OC)c1` [Example 165, N-(2,6-Dichlorobenzoyl)-4-(4-methylcarbamoyl-2,6-dimethoxyphenyl)-L-phenylalanine], the melting point was 251 to 252 °C. For the same compound, the IC50 in data set [1] is less than 300 nM.

`CNC(=O)Nc1cc(Cl)c(C(=O)N[C@@H](Cc2ccc(-c3c(OC)cccc3OC)cc2)C(=O)O)c(Cl)c1` [Example 203] came in with a melting point of 110 to 112 °C. In addition, in data set [1], the IC50 was less than 300 nM.

In turn, `Cc1cccc(C)c1-c1ccc(C[C@H](NC(=O)c2c(Cl)cccc2Cl)C(=O)O)cc1` [Example 145] had a melting point of 200 to 201 °C. Also, in data set [1], the IC50 lay within 1000 to 5000 nM.

On to `CCNC(=S)Nc1ccc(C(=O)N[C@@H](Cc2ccc(-c3ccccc3OC)cc2)C(=O)O)c(Cl)c1` [Example 196], for which the melting point lay in the range of 155 to 156 °C. For the same compound, the 50% inhibitory concentration (IC50) in data set [1] is less than 300 nM.

The compound `COc1cccc(OC)c1-c1ccc(C[C@H](NC(=O)c2c(Cl)cc(NC(C)=O)cc2Cl)C(=O)O)cc1` [Example 199] registered a melting point of 227 to 229 °C. For the same compound, in data set [1], the 50% inhibitory concentration (IC50) was less than 300 nM.

The compound `COc1cc(C(=O)NCCN2CCOCC2)cc(OC)c1-c1ccc(C[C@H](NC(=O)c2c(Cl)cccc2Cl)C(=O)O)cc1` [Example 171] yielded a melting point of 268 to 269 °C. The IC50 in data set [1] was less than 300 nM.

Values taken from patent US6855843B2, “Inhibitors of α4 mediated cell adhesion” (Tanabe Seiyaku Co., Ltd., priority 1998, dated 2005).
